The text below walks through data of patent US12156876B2, “Formulations of influenza therapeutics” (priority 2018, dated 2024).

For one data set, the system named is influenza. Put plainly: anti-influenza potency. It counts as cell-based.
For data set [1] the following is noted: BALB/C, mouse, in vivo.

With `O=C(O)C1C2CCC(CC2)C1n1cc(F)c2cnc(-c3c[nH]c4ncc(Cl)cc34)nc21` (centres unmarked) [Compound 1, 3-(2-(5-chloro-1H-pyrrolo[2,3-b]pyridin-3-yl)-5-fluoro-7H-pyrrolo[2,3-d]pyrimidin-7-yl)bicyclo[2.2.2]octane-2-carboxylic acid], the EC50 with influenza was in the range of 0.1 to 3 nM. For the same compound, the “drug level excess of the therapeutic dose (anti-influenza potency EC50)” value in data set [1] is recorded as “at least 100 fold”.
